Common to all, as to assay type: physicochemical
Data set [1] can be described thus: Octanol/water distribution coefficient from solubilities. The conditions noted are these: pH=7.1.
Data set [2] in a line: Determination of Vx-770 solubility profile (incremental solvent addition; saturated saline, 1-octanol extraction, spectrophotometry at 311 nm). The note with it: for solubility at 24 h: aqueous saline (standard bath solution). From the text: We reasoned that some of the reported controversies on Vx-770 effects might be explained by the use of highly supersaturated concentrations of the drug in all published studies, and set out to determine its true solubility profile. Starting from crystalline Vx-770 (Selleck Chemicals), solubilities (S) of the drug in various organic solvents could be readily determined by adding incremental small volumes of solvent until all crystals had been dissolved (Table 1). We found Vx-770 extremely soluble in anhydrous dimethyl sulfoxide (DMSO) (S ~ 0.77 M), and reasonably soluble in 1-octanol (S ~ 3.9 mM) and ethanol (S ~ 3.1 mM). […] To generate an aqueous solution exactly saturated with Vx-770, a small aliquot of crystals was added to an aqueous saline (pH = 7.1) and, after vigorous shaking for 24 hr, visible crystals were removed by repeated filtering and microcrystals sedimented by centrifugation (Materials and methods). The resulting supernatant (our ‘1x saturated’ stock solution) was then used both for determination of Vx-770 solubility (Figure 1b–c), and for functional experiments (Figures 2–5). […] Repeated extraction of the aqueous stock with 1-octanol yielded a flat spectrum ([…], green spectrum, ‘2nd extract’), confirming that all Vx-770 had been efficiently extracted in the first round.
Crystalline Vx-770 (purity 99.58% by HPLC) was purchased from Selleck Chemicals (Houston, TX, USA). Solubilities (S) at 25°C in anhydrous dimethyl sulfoxide (DMSO) (S ~ 0.77 M), 1-octanol (S ~ 3.9 mM), ethanol (S ~ 3.1 mM), octane (S ~ 2.6 mM), and pentane (S ~ 18 μM) were determined by weighing out a small amount (1–2 mg) of crystals on an analytical balance (Kern ABJ), and adding incremental small volumes of solvent, followed by mixing, until all crystals had been dissolved.
To obtain an aqueous solution (pH = 7.1) exactly saturated with Vx-770 (our ‘1x saturated’ stock), a small aliquot of Vx-770 crystals (~0.1 mg) was added to 250 ml of our standard bath solution (in mM: 134 NMDG-Cl, 2 MgCl2, 5 HEPES, 0.5 EGTA, pH = 7.1 with NMDG), and the solution was shaken for 24 hr at 25°C at 200 RPM (New Brunswick Excella E24). Remaining, clearly visible, macrocrystals were removed by filtering the solution twice through an 0.22 μm pore size filter (Millipore Durapore Steritop + Stericup, Merck KGaA, Darmstadt, Germany). To sediment invisible microcrystals, the filtrate was centrifuged at 7200 RCF for 1 hr in 50 ml conical tubes, and the supernatant carefully removed, leaving the last ~1 ml behind. The resulting cleared filtrate was stored and used as a stock solution for all subsequent studies.
The concentration of Vx-770 in the 1x saturated stock was determined by spectrophotometry (NanoPhotometer P300, Implen GmbH). […] To obtain a calibration curve, Vx-770 (from a commercial 10 mM stock dissolved in DMSO, purchased from Selleck Chemicals) was diluted into 1-octanol (saturated with water) to final concentrations of 1, 2, 4, 8, and 16 μM. Absorption spectra were measured in a 1 ml quartz cuvette against 1-octanol (saturated with water) as a blank (Figure 1b, blue spectra). To extract Vx-770 from the 1x saturated aqueous stock, two 15 ml conical tubes, each containing 14 ml of the 1x aqueous stock plus 0.7 ml 1-octanol, were vortexed for 1 min, and then centrifuged at 7200 RCF for 30 min. Approximately 2 × 0.6 ml of the 1-octanol phase was recovered, pooled, and its absorption spectrum measured in a 1 ml quartz cuvette against 1-octanol (saturated with water) as a blank (Figure 1b, red spectrum). To extract the remaining aqueous phase for a second time, the remnants of the 1-octanol phase were carefully discarded from both conical tubes, and 12.5 ml of the remaining aqueous phase (removed by inserting the pipette tip well below the surface) was transferred into two clean conical tubes. The extraction was then repeated using 2 × 0.625 ml 1-octanol, from which 2x ~ 0.5 ml was recovered, pooled, and assayed for optical density (Figure 1b, green spectrum). […]

The nature of data set [3]: Thermodynamic parameters of the Vx-770 aqueous solution process. Here is the method:
As a further parameter of clinical interest, we also determined the aqueous solubility of Vx-770 at body temperature (pH = 7.1). […] The standard enthalpy of solution, estimated from the solubilities at 37°C vs. 25°C, is ΔH^osol = +51.2 kJ/mol, and the standard free energy of solution at 25°C is ΔG^osol = +41.1 kJ/mol (Materials and methods).
The standard enthalpy of solution was calculated as ΔH^osol = ((RT1T2)/(T2−T1))⋅ln(S(T2)/S(T1)), where R = 8.31 Jmol^−1K^−1, T1 = 298 K (25°C), T2 = 310 K (37°C), and S(T1) and S(T2) are the measured aqueous solubilities of Vx-770 at the respective temperatures (pH = 7.1). The standard free energy of solution at T = 298 K (25°C) was calculated as ΔG^osol = −RT⋅ln(S(T)).

Values after ≈ are worked out from the molar mass of the structure shown. Values joined by “and” are separate entries in the source; they are usually repeats but may differ in a detail not shown here. Equal entries are not always repeated. Where two headings read alike, the source gives them in different places.

Consider `CC(C)(C)c1cc(C(C)(C)C)c(NC(=O)c2c[nH]c3ccccc3c2=O)cc1O` [Vx-770, ivacaftor], for which the logD (as a rule, lipophilicity at a set pH, counting ionised and neutral species) in data set [1] (octanol/water) was determined as 4.8. In addition, in data set [1], the “octanol/water distribution coefficient Doct/wat” value was 62580 and ~ 60000. In addition, the solubility (in general, how much of the substance goes into solution per volume) is 3900 µM (≈ 1530 µg/mL) in data set [2] (1-octanol, 25 °C, organic solvent or mixture, thermodynamic from solid, 1-octanol, 25°C, read-out: S (solubility)); 770000 µM (≈ 302000 µg/mL) in data set [2] (anhydrous DMSO, 25 °C, organic solvent or mixture, thermodynamic from solid, DMSO, 25°C, read-out: S (solubility)); 3100 µM (≈ 1220 µg/mL) in data set [2] (ethanol, 25 °C, organic solvent or mixture, thermodynamic from solid, ethanol, 25°C, read-out: S (solubility)); 2600 µM (≈ 1020 µg/mL) in data set [2] (octane, 25 °C, organic solvent or mixture, thermodynamic from solid, octane, 25°C, read-out: S (solubility)); roughly 2600 µM (≈ 1020 µg/mL) in data set [2] (octane, 25°C, read-out: S (solubility)); 18 µM (≈ 7.06 µg/mL) in data set [2] (pentane, 25 °C, organic solvent or mixture, thermodynamic from solid, pentane, 25°C, read-out: S (solubility)). In addition, the solubility in data set [2] (pentane, 25°C, read-out: S (solubility)) is roughly 18 µM (≈ 7.06 µg/mL). Besides, the “aqueous solubility lower than reported / generally believed” value in data set [2] (25°C) is on record as ~ 200 fold. Besides, in data set [2] (25°C, pH = 7.1, aqueous saline), the “aqueous solubility Saq” value was ~ 62 nM and ~ 60 nM. Also, the solubility at 24 h in data set [2] (25 °C, pH 7.1, thermodynamic from solid, water (pH=7.1), aqueous saline, 25°C, read-out: S (solubility)) is 0.062 µM (≈ 0.0243 µg/mL); in data set [2] (pH 7.1, 25°C, over pH 7.1 and 7.4, read-out: aqueous solubility estimate) it was 0.05 to 0.062 µM (≈ 0.0196 to 0.0243 µg/mL); in data set [2] (pH 7.1, 25°C, pH = 7.1, aqueous saline, read-out: aqueous solubility Saq) it was 0.06 µM (≈ 0.0235 µg/mL). Also, the pKa (usually the negative logarithm of the acid dissociation constant) in data set [2] (inferred from solubility at pH 7.4 vs 7.1, read-out: strongest acidic pKa) is greater than 7.4. Also, the “aqueous solubility at 37°C compared to that at 25°C” value in data set [2] (pH = 7.1, higher at 37°C) was ~ 2 fold. In data set [3] (25°C), the “TΔS^osol” value was “+10.1 kJ/mol”. Further, in data set [3] (25°C), the “standard free energy of solution ΔG^osol” value is “+41.1 kJ/mol”. Also, the “standard enthalpy of solution ΔH^osol” value in data set [3] (from aqueous solubilities at 37°C vs. 25°C, pH 7.1) was “+51.2 kJ/mol”.

The values are drawn from paper PMC6594753, “Cystic fibrosis drug ivacaftor stimulates CFTR channels at picomolar concentrations” (eLife, 2019).
